Reference: article PMC9387325, “New quinoline and isatin derivatives as apoptotic VEGFR-2 inhibitors: design, synthesis, anti-proliferative activity, docking, ADMET, toxicity, and MD simulation studies” (Journal of Enzyme Inhibition and Medicinal Chemistry, 2022)

What was measured:
[1] = test system: Caco-2 cells; assay: Wound healing assay (migration assay); type: cell-based, human
Protocol: In this test, Caco-2 cells were allowed to grow then, a wound was formed on the cell layer. Next, the cells were incubated with the sub IC50 dose of compound 7. The results of wound healing were compared to the untreated cell line. Figure 4 illustrates the degree of wound healing caused by compound 7 compared to the control cells.
Was performed as the described protocol[50] and was explained intensely in Supplementary data. […]
(§1) a- Mammalian cell lines culture
Lung carcinoma epithelial (A549), colon cancer (Caco-2)cell lines were cultured on DMEM media, meanwhile hepatocellular cancer (HepG2), and breast cancer (MDA-MB-231) cell lines were cultured on RBMI media. […]
of 100.0 µl of 6×10^4 cell/ml cells was seeded in to each well of a 96-well plate and then the plates were incubated at 37 °C in a humidified 5.0% CO2 incubator for 24 h. […] At the end of incubation, cellular viability was assessed using MTS assay kit (Promega) according to the manual instruction. c- In-vitro anticancer activity
Anticancer activities of the tested compounds against lung carcinoma epithelial (A549), colon cancer (Caco-2), hepatocellular cancer (HepG2), and breast cancer (MDA-MB-231) cell lines were quantified using MTS assay kit (Promega) as described by the Manufacturer. d- Selectivity index (SI) […]

[2] = test system: Caco-2 cells; assay: Flow cytometric cell cycle analysis; type: cell-based, human; conditions: Caco-2, 90 µM, 24 h
Source text: Employing the flowcytometry technique, the cell cycle pattern of the untrated Caco-2 cancer cells (Figure 6(A)) was compared with that of the treated cells with compound 7.

[3] = Cytotoxicity against normal cells (safety assay); type: cell-based; conditions: African green monkey, Vero cells (non-cancerous cell line)
Protocol: The cytotoxic activities of the synthesised against normal cells were evaluated against the Vero cell line utilising an MTT assay.
The safety profiles were examined on Vero cells (non-cancerous cell line) and was explained intensely in Supplementary data[48]. […]
a- Mammalian cell lines culture […]
(§2) RBMI media. The cultured media were supplement ed with 200 mM L-glutamine, 10.0% fetal bovine serum (Lonza), and 1.0% penicillin/streptomycin. Cells were seeded into 25.0 cm tissue culture flasks and incubated at 37 ◦C in a 5.0% CO2 incubator for 24 h or till confluency.
(§3) The safety profiles of the tested compounds were checked on one non-cancerous cell line (Vero) to […]
of 100.0 µl of 6×10^4 cell/ml cells was seeded in to each well of a 96-well plate and then the plates were incubated at 37 °C in a humidified 5.0% CO2 incubator for 24 h. At the end of incubation period, the exhausted medium was replaced with 100.0 µl of different concentrations of the designated treatment (prepared in RPMI medium starting from 1.0 mM). The inoculated plates were incubated at the same growth conditions for another 24 h. At the end of incubation, cellular viability was assessed using MTS assay kit (Promega) according to the manual instruction. […]

[4] = test system: TGF; assay: RT-qPCR gene expression in Caco-2 cells; type: cell-based, human; conditions: Caco-2, 90 µM, 24 h
Protocol: (§4) RT-qPCR technique was applied to assess the expression levels of Bcl2, Bcl-xl, Survivin, and TGF in Caco-2 cells after treatment with compound 7 for 24 h. […] On the other hand, such a compound produced an upregulation effect of the TGF gene.
(§5) Bcl2, Bcl-xl, TGF and Survivin genes levels were evaluated as reported[51] and was explained intensely in Supplementary data. […]
(§6) f- Gene expression pattern alternation of cancer cell after treatment with compound 7.
(§7) The molecular anticancer mode of action of 7 was investigated by screening their ability to affect the gene expression levels of Bcl2, Bcl-xl, TGF and Survivin genes using specific forward and reverse primers and RTq-PCR technique (Table 1) in CaCo-2 cells (chosen as the most sensitive cancer cell line). After cellular treatment, CaCo-2 cell line was cultured into 12 well plates (6×10^3 cell/ml) for 24 h. with the sub -IC50 concentration of 7. After treatment, total RNA extraction was performed using RNA extraction kit (Qiagen, Germany). Then, 1 ug of the obtained RNA was used to synthesiz cDNA using cDNA synthesis kit (Promega Corp., Madison, WI) as recommended by the manufacturer . Simultaneously, GAPDH forward and reverse primers (Table 1) were used to amplify the house keeping gene as internal control for standardization of PCR products. The RTq -PCR was done using SYBR Green dye (QuantiTect SYBR Green PCR Kits) and Light Cycler fluorimeter (Bio-RAD S1000 Tm thermal cycler). The PCR cycling program was as follows: 95 °C for 2 min, followed by 40 cycles of 95 °C for 30s, 55 °C for 30 s, and 60 °C for 45s, and finally 60 °C for 5 min. […]

[5] = test system: Bcl-xl; assay: RT-qPCR gene expression in Caco-2 cells; type: cell-based, human; conditions: Caco-2, 90 µM, 24 h
Protocol: as §4, §5, §6, §7

[6] = test system: Survivin; assay: RT-qPCR gene expression in Caco-2 cells; type: cell-based, human; conditions: Caco-2, 90 µM, 24 h
Protocol: as §4, §5, §6, §7

[7] = test system: Bcl2; assay: RT-qPCR gene expression in Caco-2 cells; type: cell-based, human; conditions: Caco-2, 90 µM, 24 h
Protocol: as §4, §5, §6, §7

[8] = In vitro anti-proliferative activity (MTT assay); type: cell-based, human; conditions: African green monkey (Vero) / human (Caco-2); IC50 on normal (Vero) cells / IC50 on Caco-2; read-out: Selectivity index Caco-2
Protocol: (§8) To assess the antiproliferative effects of the targeted candidates, an MTT assay[29–31] was performed against four cancer cell lines: lung carcinoma epithelial (A549), colon cancer (Caco-2), hepatocellular cancer (HepG2), and breast cancer (MDA-MB-231).
(§9) Anti-proliferative activities were assessed using the MTT assay[31]^,[46] and were explained intensely in Supplementary data. […]
as §1
as §2, with “Lung carcinoma epithelial (A549), colon cancer (Caco-2)cell lines were cultured on DMEM media, meanwhile hepatocellular cancer (HepG2), and breast cancer (MDA-MB-231) cell lines were cultured on RBMI” for “RBMI”
as §3
(§10) of 100.0 µl of 6×10^4 cell/ml cells was seeded in to each well of a 96-well plate and then the plates were incubated at 37 °C in a humidified 5.0% CO2 incubator for 24 h. At the end of incubation period, the exhausted medium was replaced with 100.0 µl of different concentrations of the designated treatment (prepared in RPMI medium starting from 1.0 mM). The inoculated plates were incubated at the same growth conditions for another 24 h. At the end of incubation, cellular viability was assessed using MTS assay kit (Promega) according to the manual instruction. c- In-vitro anticancer activity
(§11) Anticancer activities of the tested compounds against lung carcinoma epithelial (A549), colon cancer (Caco-2), hepatocellular cancer (HepG2), and breast cancer (MDA-MB-231) cell lines were quantified using MTS assay kit (Promega) as described by the Manufacturer. d- Selectivity index (SI)
(§12) The selectivity index values of the tested compounds on cancer cells were calculated as described by Koch et al., with slight modifications; SI=IC50nc/IC50cc, where IC50nc: the IC50 value of the tested compound on normal cells and IC 50cc: IC50 of the tested compound on cancer cell line . […]

[9] = test system: Caco-2; assay: In vitro anti-proliferative activity (MTT assay); type: cell-based, human; conditions: for IC50: Homo sapiens, Caco-2, mean of three replicates
Protocol: as §8, §9, §1
as §2, with “Lung carcinoma epithelial (A549), colon cancer (Caco-2)cell lines were cultured on DMEM media, meanwhile hepatocellular cancer (HepG2), and breast cancer (MDA-MB-231) cell lines were cultured on RBMI” for “RBMI”
as §3, §10, §11, §12

[10] = biological target: T1, VEGFR-2 (Homo sapiens, UniProt P35968); assay: In vitro VEGFR-2 kinase assay (VEGFR-2 ELISA kit); type: biochemical; conditions: for HillSlope (best-fit value), VEGFR-2 inhibition / LogIC50 (best-fit value), VEGFR-2 inhibition: dose-response fit, supplement; for IC50: mean of three replicates, read-out: VEGFR-2 inhibitory activity IC50
T1 construct: purchased
T1 sequence (P35968 20-1356): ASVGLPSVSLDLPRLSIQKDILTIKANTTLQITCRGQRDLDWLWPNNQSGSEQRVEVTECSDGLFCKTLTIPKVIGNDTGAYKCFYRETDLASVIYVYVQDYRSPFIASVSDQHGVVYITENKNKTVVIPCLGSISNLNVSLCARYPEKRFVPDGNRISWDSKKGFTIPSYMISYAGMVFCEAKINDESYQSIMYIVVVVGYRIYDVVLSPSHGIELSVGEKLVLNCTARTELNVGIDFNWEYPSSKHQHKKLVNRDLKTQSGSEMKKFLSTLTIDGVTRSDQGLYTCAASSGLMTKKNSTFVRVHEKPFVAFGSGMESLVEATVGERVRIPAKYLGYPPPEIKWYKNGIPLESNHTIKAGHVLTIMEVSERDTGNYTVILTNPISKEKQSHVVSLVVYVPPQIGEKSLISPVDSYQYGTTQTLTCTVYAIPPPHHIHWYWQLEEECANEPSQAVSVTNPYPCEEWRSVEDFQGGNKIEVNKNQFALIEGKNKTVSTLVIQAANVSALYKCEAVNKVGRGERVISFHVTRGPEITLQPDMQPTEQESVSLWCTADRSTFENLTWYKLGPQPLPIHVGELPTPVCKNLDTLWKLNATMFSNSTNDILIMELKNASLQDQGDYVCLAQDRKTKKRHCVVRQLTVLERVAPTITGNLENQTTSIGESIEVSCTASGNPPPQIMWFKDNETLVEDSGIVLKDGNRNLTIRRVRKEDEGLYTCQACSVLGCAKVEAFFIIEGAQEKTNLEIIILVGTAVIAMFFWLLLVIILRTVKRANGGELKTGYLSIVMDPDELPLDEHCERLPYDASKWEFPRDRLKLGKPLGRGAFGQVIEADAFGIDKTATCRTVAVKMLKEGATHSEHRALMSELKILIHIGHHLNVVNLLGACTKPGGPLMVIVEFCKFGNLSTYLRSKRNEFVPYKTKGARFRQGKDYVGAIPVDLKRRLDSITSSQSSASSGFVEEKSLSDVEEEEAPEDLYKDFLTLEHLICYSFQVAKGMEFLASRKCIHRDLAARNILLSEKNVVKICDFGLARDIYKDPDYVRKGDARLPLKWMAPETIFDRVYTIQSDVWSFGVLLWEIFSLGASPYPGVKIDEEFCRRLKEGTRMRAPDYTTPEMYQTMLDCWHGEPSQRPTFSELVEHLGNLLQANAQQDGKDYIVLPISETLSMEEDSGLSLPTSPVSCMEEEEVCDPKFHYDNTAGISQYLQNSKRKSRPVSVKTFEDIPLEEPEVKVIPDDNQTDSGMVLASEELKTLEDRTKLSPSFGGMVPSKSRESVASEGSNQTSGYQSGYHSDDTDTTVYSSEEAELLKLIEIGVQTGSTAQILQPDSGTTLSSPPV
Protocol: As the main target in this work is the design and synthesis of promising VEGFR-2 inhibitors, we subjected the synthesised compounds to in vitro VEGFR-2 inhibitory assay to assess the ability of these compounds to obstacle the kinase activity of VEGFR-2.
Was tested using a VEGFR-2 ELISA kit and was explained intensely in Supplementary data[47].

[11] = test system: MDA-MB-231; assay: In vitro anti-proliferative activity (MTT assay); type: cell-based, human; conditions: for IC50: Homo sapiens, MDA-MB-231, MDA-MB231, mean of three replicates; for Selectivity index MDA-MB231: IC50 on normal (Vero) cells / IC50 on MDA-MB231
Protocol: as §9, §1
(§13) Lung carcinoma epithelial (A549), colon cancer (Caco-2)cell lines were cultured on DMEM media, […]
as §2, §3, §10
(§14) Anticancer activities of the tested compounds against lung carcinoma epithelial (A549), colon cancer […]
(§15) quantified using MTS assay kit (Promega) as described by the Manufacturer. d- Selectivity index (SI)
as §12

[12] = test system: A549; assay: In vitro anti-proliferative activity (MTT assay); type: cell-based, human; conditions: for IC50: Homo sapiens, A549, mean of three replicates; for Selectivity index A549: IC50 on normal (Vero) cells / IC50 on A549
Protocol: as §9, §1, §13, §2, §3, §10, §14, §15, §12

[13] = test system: HepG2; assay: In vitro anti-proliferative activity (MTT assay); type: cell-based, human; conditions: for IC50: Homo sapiens, HepG2, HepG-2, mean of three replicates; for Selectivity index HepG2: IC50 on normal (Vero) cells / IC50 on HepG2
Protocol: as §9, §1, §13, §2, §3, §10, §14, §15, §12

Compound	IC50 at 24 h [3] [µM]	selectivity ratio [8]	IC50 [9] [µM]	HillSlope (best-fit value), VEGFR-2 inhibition [10]	LogIC50 (best-fit value), VEGFR-2 inhibition [10]	IC50 [11] [µM]	Selectivity index MDA-MB231 [11]	IC50 [12] [µM]	Selectivity index A549 [12]	IC50 [13] [µM]	Selectivity index HepG2 [13]	IC50 [10] [µM]	further results
COc1ccc2[nH]c(=O)c(/C=C3\SC(=O)N(CC(=O)Nc4ccccc4)C3=O)cc2c1 [Compound 7, (Z)-2–(5-((6-Methoxy-2-oxo-1,2-dihydroquinolin-3-yl)methylene)-2,4-dioxothiazolidin-3-yl)-N-phenylacetamide]	440 ± 14.1	4.71	93.5 ± 0.71	-0.4960	2.138 Log (nM)	122 ± 7.01	3.59	159 ± 14	2.77	150 ± 7.07	2.93	–	diameter of the wound, treated cells (Figure 4A) ([1]; Caco-2, 90 µM, time not stated): 0.3058 mm; effect on wound healing ([1]; Caco-2, sub IC50 dose (90 µM)): prevent wound healing; cell cycle arrest [2]: cellular arrest in sub G0 (Apoptotic phase); cell population in S phase ([2]; untreated 24.7%): 13.1%; cell population in G0/G1 phase ([2]; untreated 51.7%): 46.4%; Relative expression of TGF gene [4]: upregulation; Relative expression of Bcl-xl gene [5]: down-regulating; Relative expression of Survivin gene [6]: down-regulating; Relative expression of Bcl2 gene [7]: down-regulating
COc1cccc2c1C(=O)c1c(O)c3c(c(O)c1C2=O)C[C@@](O)(C(=O)CO)C[C@@H]3O[C@H]1C[C@H](N)[C@H](O)[C@H](C)O1 [Doxorubicin, reference compound]	25 ± 1.41	3.05	8.2 ± 0.21	–	–	9 ± 0.77	2.78	7 ± 0.22	3.57	2.8 ± 0.07	8.93	–	–
COc1ccc(NC(=O)CN2C(=O)S/C(=C\c3cc4cc(OC)ccc4[nH]c3=O)C2=O)cc1 [Compound 8, (Z)-2–(5-((6-Methoxy-2-oxo-1,2-dihydroquinolin-3-yl)methylene)-2,4-dioxothiazolidin-3-yl)-N-(4-methoxyphenyl)acetamide]	150 ± 14.1	0.79	190 ± 9.11	-0.3463	2.272 Log (nM)	130 ± 5.6	1.15	196 ± 70	0.77	134 ± 1.41	1.12	0.187	–
COc1ccc(NC(=O)CN2C(=O)S/C(=C3\C(=O)Nc4ccccc43)C2=O)cc1 [Compound 14]	30 ± 1.35	–	5.7 ± 0.07	–	–	9 ± 0.51	–	54 ± 1.4	–	149 ± 7.01	–	0.0859	times as active as doxorubicin ([9]; Caco-2 cells): 1.44 times
COc1ccc2[nH]c(=O)c(/C=C3\SC(=O)N(CC(=O)Nc4ccccc4C)C3=O)cc2c1 [Compound 9, (Z)-2–(5-((6-Methoxy-2-oxo-1,2-dihydroquinolin-3-yl)methylene)-2,4-dioxothiazolidin-3-yl)-N-(o-tolyl)acetamide]	196 ± 2.8	1.17	167 ± 4.2	-0.5262	1.994 Log (nM)	188 ± 7.01	1.04	51 ± 4.2	3.84	145 ± 3.5	1.35	0.0985	times as active as sorafenib ([10]; VEGFR-2 inhibition): 0.54 times
